pIC50: −log10 of the molar value.
Molecular target: T1, human LPA1 (Homo sapiens, UniProt Q92633)
T1 construct: expressed in transfected cells; host or cells: Chinese hamster ovary (CHO) cells
Assay: LPA1 functional antagonist assay (LPA-induced calcium flux)
Format: cell-based
Settings: CHO cells overexpressing human LPA1; inhibition of calcium flux induced by 10 nM LPA; read-out: hLPA1 IC50
Experimental: The effectiveness of compounds of the present invention as LPA1 inhibitors can be determined in an LPA1 functional antagonist assay as follows:
Chinese hamster ovary cells overexpressing human LPA1 were plated overnight (15,000 cells/well) in poly-D-lysine coated 384-well microplates (Greiner bio-one, Cat #781946) in DMEM/F12 medium (Gibco, Cat #11039). Following overnight culture, cells were loaded with calcium indicator dye (AAT Bioquest Inc, Cat #34601) for 30 minutes at 37° C. The cells were then equilibrated to room temperature for 30 minutes before the assay. Test compounds solubilized in DMSO were transferred to 384 well non-binding surface plates (Corning, Cat #3575) using the Labcyte Echo acoustic dispense and diluted with assay buffer [1×HBSS with calcium/magnesium (Gibco Cat #14025-092), 20 mM HEPES (Gibco Cat #15630-080) and 0.1% fatty acid free BSA (Sigma Cat #A9205)] to a final concentration of 0.5% DMSO. Diluted compounds were added to the cells by FDSS6000 (Hamamatsu) at final concentrations ranging from 0.08 nM to 5 μM. and were then incubated for 20 min at room temperature at which time LPA (Avanti Polar Lipids Cat #857130C) was added at final concentrations of 10 nM to stimulate the cells. The compound IC50 value was defined as the concentration of test compound which inhibited 50% of the calcium flux induced by LPA alone. IC50 values were determined by fitting data to a 4-parameter logistic equation (GraphPad Prism, San Diego CA).

T1 sequence (Q92633 whole entry): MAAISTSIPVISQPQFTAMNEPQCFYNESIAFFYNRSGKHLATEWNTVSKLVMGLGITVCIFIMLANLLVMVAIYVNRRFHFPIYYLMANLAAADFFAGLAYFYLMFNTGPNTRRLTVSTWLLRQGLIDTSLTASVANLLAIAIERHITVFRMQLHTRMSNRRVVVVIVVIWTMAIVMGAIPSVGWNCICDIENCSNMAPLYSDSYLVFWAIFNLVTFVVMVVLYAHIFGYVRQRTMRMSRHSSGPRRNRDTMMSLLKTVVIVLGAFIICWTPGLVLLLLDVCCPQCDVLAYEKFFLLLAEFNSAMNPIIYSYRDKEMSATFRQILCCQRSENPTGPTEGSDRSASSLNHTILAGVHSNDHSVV

SMILES	pIC50
Cc1nc(-c2nnn(C)c2CNc2nccc(-c3ccccn3)n2)ccc1OC[C@@H]1CC[C@H](C(=O)O)C1 (relative stereo) [Example 36, cis-3-(((2-methyl-6-(1-methyl-5-(((4-(pyridin-2-yl)pyrimidin-2-yl)amino)methyl)-1H-1,2,3-triazol-4-yl)pyridin-3-yl)oxy)methyl)cyclopentane-1-carboxylic acid]	6.92
CCC1(COC(=O)NCc2c(-c3ccc(O[C@H]4CC[C@H](CC(=O)O)C4)c(C)n3)nnn2C)CC1 (racemic) [Example 60, (±)-trans-2-[3-[(6-{5-[({[(1-ethyl-cyclopropyl)methoxy]carbonyl}amino)methyl]-1-methyl-1H-1,2,3-triazol-4-yl}-2-methylpyridin-3-yl)oxy]cyclopentyl]acetic acid]	6.58
Cc1noc(-c2ccc(O[C@@H]3CC[C@@H](C(=O)O)C3)cn2)c1CNc1nccc(-c2ccccn2)n1 (relative stereo) [Example 34, trans-3-((6-(3-methyl-4-(((4-(pyridin-2-yl)pyrimidin-2-yl)amino)methyl)isoxazol-5-yl)pyridin-3-yl)oxy)cyclo-pentane-1-carboxylic acid]	6.61
Cc1nc(-c2cnn(C)c2COC(=O)N(C)CC2CCC2)cnc1O[C@H]1CC[C@H](C(=O)O)C1 (single isomer, unassigned) [Example 17]	6.38
Cc1nc(-c2nnn(C)c2COC(=O)N(C)CC2CCC2)ccc1O[C@H]1CC[C@H](C(=O)O)C1 (single isomer, unassigned) [Example 79, Trans-(1,3)-3-({6-[5-({[(cyclobutyl-methyl) (methyl)carbamoyl]oxy}methyl)-1-methyl-1H-1,2,3-triazol-4-yl]-2-methylpyridin-3-yl}oxy)cyclo-pentane-1-carboxylic acid]	6.17
Cc1nc(-c2nnn(C)c2CNc2nccc(C(C)C)n2)ccc1O[C@@H]1CC[C@@H](CC(=O)O)C1 (relative stereo) [Example 40, 2-(trans-3-((6-(5-(((4-isopropylpyrimidin-2-yl)amino)methyl)-1-methyl-1H-1,2,3-triazol-4-yl)-2-methylpyridin-3-yl)oxy)cyclopentyl)acetic acid]	7.04
Cc1nc(-c2nnn(C)c2COC(=O)N(C)CC2CCC2)ccc1O[C@H]1CC[C@@H](C(=O)O)C1 (racemic) [Example 74, (±)-cis-3-({6-[5-({[cyclobutylmethyl)(methyl)carbamoyl]oxy}methyl)-1-methyl-1H-1,2,3-triazol-4-yl]-2-methylpyridin-3-yl}oxy)cyclopentane-1-carboxylic acid]	7.00
Cc1noc(-c2ccc(OC[C@@H]3CC[C@H](C(=O)O)C3)cc2)c1COC(=O)N(C)C1CCCC1 (relative stereo) [Example 41, Cis-3-((4-(4-(((cyclopentyl(methyl)carbamoyl)oxy)methyl)-3-methylisoxazol-5-yl)phenoxy)methyl)cyclopentane-1-carboxylic acid]	6.49
Cc1nc(-c2onc(C)c2COC(=O)N(C)C2CCCC2)ccc1O[C@@H]1CC[C@@H](CC(=O)O)C1 (racemic) [Example 8, (±)-Trans-2-(3-((6-(4-(((cyclopentyl(methyl)carbamoyl)oxy)methyl)-3-methylisoxazol-5-yl)-2-methylpyridin-3-yl)oxy)cyclopentyl)acetic Acid]	7.89
Cc1nc(-c2nnn(C)c2CNC(=O)OCc2ccccc2)ccc1O[C@@H]1CC[C@@H](C(=O)O)C1 (single isomer, unassigned) [Example 21, Trans-3-((6-(5-((((benzyloxy)carbonyl)amino)methyl)-1-methyl-1H-1,2,3-triazol-4-yl)-2-methyl-pyridin-3-yl)oxy)cyclopentane carboxylic acid]	7.25
CCc1nc(-c2nnn(C)c2COC(=O)N(C)CC2CCC2)ccc1O[C@@H]1CC[C@@H](CC(=O)O)C1 (racemic) [Example 87, (±)-2-((trans)-3-((6-(5-((((cyclo-butylmethyl)(methyl)carba-moyl)oxy)methyl)-1-methyl-1H-1,2,3-triazol-4-yl)-2-ethyl-pyridin-3-yl)oxy)cyclopentyl)acetic acid]	7.34
